Data on seven compounds can be found in patent US20220193384A1, “CUTANEOUS DEVICE FOR STORING AND RELEASING MOLECULES, AND CORRESPONDING METHOD” (priority 2019, published 2022).

The conditions of series [1]: drug passed through and remained inside the excised skin; cited from earlier work.
For series [2] the following is noted: C57BL/6, mouse, 100 μg mL^−1, pH 7.4.
The test system of series [3] is Gram-negative E. coli K12. The series can be described thus: Minimum inhibitory concentration (MIC). In kind it is cell-based. The conditions noted are these: Escherichia coli.
Series [4] is described as follows: Skin permeation, static Franz diffusion cell, passive and electrothermally activated patch. The conditions noted are these: stock solution 100 μg mL^−1 for loading, mouse skin.
The test system of series [5] is blood glucose level. The series can be described thus: In vivo blood glucose level after insulin injection or insulin-loaded electrothermal patch. The conditions noted are these: IP or subcutaneous injection of insulin (0.032 UI, 1.12 μg), C57BL/6 mice.
The mark [6] stands for this setting: electrothermal activation 1 V, 10 min.

≈ marks a conversion by molar mass, not a printed value. Where two headings read alike, the source gives them in different places.

Consider `O=c1[nH]cc(F)c(=O)[nH]1` [5-fluorouracil], for which, in series [1], the “Flux of 5-fluorouracil reported by Xie et al.” value is on record as 1.64 μg cm^−2 h^−1. Besides, in series [2], the “Active, amount of drug permeated” value amounted to 23.1 µg/mL; the Flux passive stood at 0 μg cm^−2 h^−1; the “Passive, amount of drug permeated” value amounted to 0 µg/mL.
In the case of `CC1(C)S[C@@H]2[C@H](NC(=O)[C@H](N)c3ccccc3)C(=O)N2[C@H]1C(=O)O` [ampicillin], the MIC (usually the least concentration at which growth counts as inhibited) in series [3] is 10 ± 0.5 µg/mL (≈ 28.6 µM).
Take `Cn1c(=O)c2c(ncn2C)n(C)c1=O` [caffeine]: in series [2], the “Active, amount of drug permeated” value came out at 58 µg/mL; the Flux active is listed as 15.09 μg cm^−2 h^−1; the Flux passive worked out at 7.18 μg cm^−2 h^−1; the “Passive, amount of drug permeated” value was determined as 28 µg/mL.
For `CO/N=C(\C(=O)N[C@@H]1C(=O)N2C(C(=O)[O-])=C(C[N+]3(C)CCCC3)CS[C@H]12)c1csc(N)n1` [cefepime], in series [4] (setting [6]), the “Active, amount of drug permeated” value came out at 18.3 µg/mL and the Flux active was found to be 4.67 μg cm^−2 h^−1. For the same compound, in series [4] (passive, no activation), the Flux passive is listed as 0 μg cm^−2 h^−1 and the “Passive, amount of drug permeated” value is 0 µg/mL. The MIC in series [3] amounted to 10 ± 0.5 µg/mL (≈ 20.8 µM).
`COc1cccc2c1C(=O)c1c(O)c3c(c(O)c1C2=O)C[C@@](O)(C(=O)CO)C[C@@H]3O[C@H]1C[C@H](N)[C@H](O)[C@H](C)O1` [doxorubicin]: in series [2], the “Active, amount of drug permeated” value amounted to 62 µg/mL; the Flux active is 6.61 μg cm^−2 h^−1; the Flux passive is 0 μg cm^−2 h^−1; the “Passive, amount of drug permeated” value was 0 µg/mL.
In series [2], `CN(C)C(=N)N=C(N)N` [metformin] registered a Flux active of 4.68 μg cm^−2 h^−1.
On to insulin, for which the “Time to therapeutic effect (change in blood glucose level)” value in series [5] is recorded as “about 15 min”.
